This note sets out measurements from patent US20100311714A1, “1H-IMIDAZO[4,5-c]QUINOLINONE COMPOUNDS” (priority 2009, published 2010).

Assay [1] deals with T1, mTOR (Homo sapiens, UniProt P42345).
T1 construct: purchased Invitrogen Corporation (Carlsbad/Calif., USA) PV4753
The assay can be described thus: Biochemical assay for m-TOR by TR-FRET. The note with it: read-out: EPK_mTOR/IC50. Put shortly:
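mTOR (0.5 nM) phosphorylates GFP-4EBP1 (400 nM) with 8 μM ATP at rt in 50 mM HEPES pH 7.5, 10 mM MnCl2, 50 mM NaCl, 1 mM EGTA, 1 mM DTT; compounds 0.003–10 μM final. EDTA stop with Tb-anti-p4EBP1[pT46] antibody (0.5 nM); TR-FRET read after 15 min against no-enzyme and vehicle controls.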

In assay [2] the test system is PKB Ser473 phosphorylation in Rat1-myr-HA-p110 beta cells. The assay can be described thus: Reverse protein array, PKB Ser473 phosphorylation in Rat1-myr-HA-p110 beta cells. It counts as cell-based. The conditions noted are these: Rattus norvegicus, 0.5 h, 30 minutes compound incubation, read-out: p-PKB/IC50_beta.
Assay [3] has as its system PKB Ser473 phosphorylation in Rat1-myr-HA-p110 delta cells. The assay can be described thus: Reverse protein array, PKB Ser473 phosphorylation in Rat1-myr-HA-p110 delta cells. In kind it is cell-based. The conditions noted are these: Rattus norvegicus, 0.5 h, 30 minutes compound incubation, read-out: p-PKB/IC50_delta.

T1 sequence (P42345 1360-2549 limits assumed): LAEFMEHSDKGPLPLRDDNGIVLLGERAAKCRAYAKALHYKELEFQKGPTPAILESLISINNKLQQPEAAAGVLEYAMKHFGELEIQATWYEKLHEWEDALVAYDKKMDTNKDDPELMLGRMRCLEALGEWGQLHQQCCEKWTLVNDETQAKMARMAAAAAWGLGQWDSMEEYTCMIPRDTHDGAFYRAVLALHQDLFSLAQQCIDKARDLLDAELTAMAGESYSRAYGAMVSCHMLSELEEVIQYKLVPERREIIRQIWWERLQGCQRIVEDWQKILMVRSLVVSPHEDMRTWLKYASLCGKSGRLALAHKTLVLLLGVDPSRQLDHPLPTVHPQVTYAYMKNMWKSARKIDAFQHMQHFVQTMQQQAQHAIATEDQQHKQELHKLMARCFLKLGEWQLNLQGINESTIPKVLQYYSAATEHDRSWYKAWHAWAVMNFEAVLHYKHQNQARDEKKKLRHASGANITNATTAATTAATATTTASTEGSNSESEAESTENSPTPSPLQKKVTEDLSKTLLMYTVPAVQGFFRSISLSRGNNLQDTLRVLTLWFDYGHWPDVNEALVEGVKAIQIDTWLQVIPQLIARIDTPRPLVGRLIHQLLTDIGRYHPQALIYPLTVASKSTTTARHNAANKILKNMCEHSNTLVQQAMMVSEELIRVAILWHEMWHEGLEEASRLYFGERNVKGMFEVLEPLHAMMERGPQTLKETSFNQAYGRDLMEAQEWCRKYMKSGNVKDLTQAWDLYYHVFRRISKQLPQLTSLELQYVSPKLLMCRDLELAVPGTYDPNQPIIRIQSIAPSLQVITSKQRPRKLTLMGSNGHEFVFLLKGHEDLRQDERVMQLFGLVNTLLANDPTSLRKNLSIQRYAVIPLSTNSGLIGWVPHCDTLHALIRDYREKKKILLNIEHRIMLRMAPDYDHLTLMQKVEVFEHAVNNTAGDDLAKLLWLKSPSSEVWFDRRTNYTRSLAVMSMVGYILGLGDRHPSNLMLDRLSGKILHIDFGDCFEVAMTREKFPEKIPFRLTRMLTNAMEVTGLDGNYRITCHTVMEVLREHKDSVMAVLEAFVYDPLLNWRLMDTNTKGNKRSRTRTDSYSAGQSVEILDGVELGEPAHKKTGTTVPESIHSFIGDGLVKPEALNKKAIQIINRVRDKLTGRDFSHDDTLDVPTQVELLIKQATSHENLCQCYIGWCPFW

For the compound `COc1cc(-c2ccc3ncc4c(c3c2)n(-c2ccc(N3CC[C@H](O)C3)nc2C)c(=O)n4C)cnc1CO` [Example 32.7, 8-(6-Hydroxymethyl-5-methoxy-pyridin-3-yl)-1-[6-((S)-3-hydroxy-pyrrolidin-1-yl)-2-methyl-pyridin-3-yl]-3-methyl-1,3-dihydro-imidazo[4,5-c]quinolin-2-one], the IC50 in assay [1] came to 50 nM; in assay [2], 200 nM; in assay [3] it was 178 nM.
In the same order, the values of `CNc1ncc(-c2ccc3ncc4c(c3c2)n(-c2ccc(N3CC[C@@H](O)C3)nc2C)c(=O)n4C)cn1` [Example 34.1, 1-[6-((R)-3-Hydroxy-pyrrolidin-1-yl)-2-methyl-pyridin-3-yl]-3-methyl-8-(2-methylamino-pyrimidin-5-yl)-1,3-dihydro-imidazo[4,5-c]quinolin-2-one] are 28 nM, 20 nM and 42 nM.
In the same order, the values of `CCNc1cc(-c2ccc3ncc4c(c3c2)n(-c2ccc(N3CC(F)(F)C(F)(F)C3)nc2C)c(=O)n4C)cnc1CO` [Example 35.2, 8-(5-Ethylamino-6-hydroxymethyl-pyridin-3-yl)-3-methyl-1-[2-methyl-6-(3,3,4,4-tetrafluoro-pyrrolidin-1-yl)-pyridin-3-yl]-1,3-dihydro-imidazo[4,5-c]quinolin-2-one] are 45 nM, 5.27 nM and 16.3 nM.
